One series deals with BV2 cells. As to the kind of experiment: LPS-induced IL-1β and PGC-1α gene expression in BV2 cells (qRT-PCR). To be noted: for reduction of LPS-induced IL-1β expression: then 0.1 ng/ml LPS 1 hour. Format: cell-based. An excerpt:
FIG. 4. […] Then total RNA was isolated for IL-1β gene qRT-PCR analysis.
FIGS. 7A and 7B. […] Cell lysates were collected, and RNA was isolated for IL-1β (FIG. 7A) and PGC-1α (FIG. 7B) gene expression by RT-PCR.
Total BV2 cell RNA was extracted for IL-1β gene expression via qRT-PCR analysis.
Cell lysates were collected for determination of IL-1β and PGC-1α gene expression via qRT-PCR.
For orientation: Quantitative PCR measures a nucleic acid by following its amplification.

Another series deals with T1, recombinant hCES1b (Homo sapiens, UniProt P23141).
T1 sequence (P23141 18-567): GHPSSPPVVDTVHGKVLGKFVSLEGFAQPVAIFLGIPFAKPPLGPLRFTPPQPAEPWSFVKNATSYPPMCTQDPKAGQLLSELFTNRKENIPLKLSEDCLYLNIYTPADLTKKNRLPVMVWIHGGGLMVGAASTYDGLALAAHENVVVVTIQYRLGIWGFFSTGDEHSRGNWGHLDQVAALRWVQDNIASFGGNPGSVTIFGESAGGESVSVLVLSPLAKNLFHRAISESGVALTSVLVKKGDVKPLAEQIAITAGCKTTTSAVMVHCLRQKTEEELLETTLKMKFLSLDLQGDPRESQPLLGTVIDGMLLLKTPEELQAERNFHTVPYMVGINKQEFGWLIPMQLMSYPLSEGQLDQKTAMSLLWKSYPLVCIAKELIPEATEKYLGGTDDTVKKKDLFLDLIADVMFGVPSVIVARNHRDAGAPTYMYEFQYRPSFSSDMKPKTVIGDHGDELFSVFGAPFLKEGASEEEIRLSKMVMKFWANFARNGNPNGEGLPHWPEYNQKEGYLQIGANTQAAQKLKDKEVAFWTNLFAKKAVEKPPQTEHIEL
As to the kind of experiment: Inhibition of hCES1b-mediated fenofibrate hydrolysis (Ki). Format: biochemical. As to conditions: matrix hCES1b, substrate fenofibrate. The protocol: FIGS. 5A-5D. […] Reaction was stopped, supernatant collected and fenofibric acid level was determined by LC-MS/MS. Ki values were calculated, and the type of inhibition was determined by fitting data to enzyme inhibition models: competitive (FIG. 5A), non-competitive (FIG. 5B), uncompetitive (FIG. 5C) and mixed (FIG. 5D) models. The samples were analyzed in duplicates and represented as mean values.
(§1) Incubation mixtures containing 100 mM Tris-Cl buffer (pH 7.4), recombinant hCES1b (0.05 mg/mL) or pooled human liver microsomes (1 mg/mL) and 8 concentrations of kaempferol or a positive control inhibitor (bis(4-nitrophenyl)-phosphate, BNP) were pre-incubated for 2 minutes at 37° C. […] The reactions were stopped by the addition of a stop solution containing an internal standard. Samples were centrifuged to precipitate protein and the supernatant was collected for LC-MS/MS analysis. The fenofibric acid was quantified using standard curves. The Ki values were calculated, and the type of inhibition was determined by fitting data to specific enzyme inhibition models (Table 2).

Series [1] addresses pooled human liver microsomes (HLM). As to the kind of experiment: Inhibition of fenofibrate hydrolysis in pooled human liver microsomes (Ki). It counts as in vitro ADME. To be noted: matrix HLM, substrate fenofibrate. The protocol: FIGS. 6A-6D. […] The reaction was stopped, supernatant collected and fenofibric acid level was determined by LC-MS/MS. Ki values were calculated, and the type of inhibition was determined by fitting data to enzyme inhibition models: competitive (FIG. 6A), non-competitive (FIG. 6B), uncompetitive (FIG. 6C) and mixed (FIG. 6D) models. The samples were analyzed in duplicates and represented as mean values.
as §1

Series [2] deals with primary astrocytes derived from PGC-1α WT (PGC-1α+/+) mice. The series is described as follows: LPS-induced inflammation in primary astrocytes from PGC-1α WT mice (RT-PCR gene expression). Format: cell-based, mouse. As to conditions: fenofibrate 20 μM overnight, then LPS 1 hour. The protocol: (§2) Total RNA was isolated and IL-1β (A, D), TNF-α (B, E) and PGC-1α (C, F) gene expression were determined by RT-PCR.
(§3) Primary astrocytes from postnatal heterozygous mice were isolated and cultured and wild type mice were obtained by breeding these heterozygous knockout mice. […] Total RNA was isolated, and gene expression of pro-inflammatory cytokines, IL-1β and TNF-α, was determined by RT-PCR.

Series [3] relates to primary astrocytes derived from PGC-1α heterozygous KO (PGC-1α+/−) mice. As to the kind of experiment: LPS-induced inflammation in primary astrocytes from PGC-1α heterozygous KO mice (RT-PCR gene expression). It counts as cell-based, mouse. On the procedure:
as §2, §3

A short description of series [4]: Hydrolysis of fenofibrate to fenofibric acid by pooled human liver microsomes (Km, Vmax). To be noted: pH 7.4. On the procedure: FIGS. 8A and 8B. […] Reaction was stopped, supernatant collected and fenofibric acid level was determined by LC-MS/MS. […] The samples were analyzed in duplicates and represented as mean values.
The reactions were stopped by the addition of a stop solution containing an internal standard.
A general note: Microsomes from liver hold many membrane-bound enzymes, among them those of drug oxidation.

Substrate in series [5]: CC(C)OC(=O)C(C)(C)Oc1ccc(C(=O)c2ccc(Cl)cc2)cc1
The series is described as follows: cells, lysate or membranes named. It counts as biochemical, human. To be noted: other: matrix hCES1b 0.05 mg/mL, product fenofibric acid, pH 7.4, 37° C.

Setting [6] is: read-out: Ki, Competitive inhibition model.
Setting [7] is: read-out: Ki, Mixed inhibition model.
[8] abbreviates: read-out: Ki, Non-Competitive inhibition model.
The mark [9] stands for this setting: read-out: Ki, Uncompetitive inhibition model.

The results in this text go back to US20220401404A1, “Co-Administration Therapy to Prevent Neurodegeneration and Enhance Neuroprotection” (THE REGENTS OF THE UNIVERSITY OF CALIFORNIA, priority 2019, published 2022).

Several values for one entry are separate records, joined by “and”; a condition that tells them apart may be missing. Equal values may be shown once. Read-outs that look alike come from different tables or passages of the source.

As a reminder, the Ki is the dissociation constant of the complex between target and ligand, obtained from inhibition or displacement. In general, Km refers to the concentration of substrate that gives half-maximal velocity. Broadly, the Vmax is the top rate of the reaction or transport when substrate is in excess.

For the molecule `O=c1c(O)c(-c2ccc(O)cc2)oc2cc(O)cc(O)c12` [Kaempferol, 3,5,7-trihydroxy-2-(4-hydroxyphenyl)-4H-1-benzopyran-4-one], the “reduction of LPS-induced IL-1β expression” value in the series with BV2 cells (10 μM, 18 hours) amounted to 60%; in the series on BV2 cells (20 μM, 18 hours) it was 85%. In the series with BV2 cells (kaempferol alone 10, 20 μM), the “effect on PGC-1α expression” value is “did not enhance PGC-1α expression”. For the same molecule, the Ki on recombinant hCES1b (setting [6]) was 36.2 µM; on recombinant hCES1b (setting [7]), 101 µM; at recombinant hCES1b (setting [8]) it was 101 µM; at recombinant hCES1b (setting [9]), 64.7 µM; in series [1] (setting [6]), 110 µM; in series [1] (setting [8]), 235 µM. Moreover, the Ki in series [1] (setting [9]) turned out to be 131 µM.

As to `CC(C)OC(=O)C(C)(C)Oc1ccc(C(=O)c2ccc(Cl)cc2)cc1` [Fenofibrate], the “reduction of LPS-induced IL-1β expression” value in series [2] is 60%; in series [3] (fenofibrate overnight (5, 10, 20 μM tested; concentration not stated), then LPS 1 hour), 55%; with BV2 cells (20 μM, 18 hours), 80% and 70%. Moreover, the “enhancement of PGC-1α expression” value in series [3] (fenofibrate 10 and 20 μM) is on record as 1.5 fold. In addition, the “increase of PGC-1α expression” value in the series with BV2 cells (20 μM, 18 hours, then LPS 1 hour) is recorded as 2 fold. Moreover, the Km at 10 min in series [4] was found to be 5.4 µM.

As for `O=[N+]([O-])c1ccc(OP(=O)(O)Oc2ccc([N+](=O)[O-])cc2)cc1` [BNP, bis(4-nitrophenyl)-phosphate], the Ki on recombinant hCES1b (setting [6]) stood at 0.044 µM; on recombinant hCES1b (setting [7]), 0.044 µM; at recombinant hCES1b (setting [8]), 0.17 µM; at recombinant hCES1b (setting [9]), 0.096 µM; in series [1] (setting [6]), 1.67 µM; in series [1] (setting [7]), 1.66 µM. Also, the Ki was determined as 5.17 µM in series [1] (setting [8]) and 3.02 µM in series [1] (setting [9]).

B1: recombinant hCES1b (Homo sapiens) (protein)
chain: GHPSSPPVVDTVHGKVLGKFVSLEGFAQPVAIFLGIPFAKPPLGPLRFTPPQPAEPWSFVKNATSYPPMCTQDPKAGQLLSELFTNRKENIPLKLSEDCLYLNIYTPADLTKKNRLPVMVWIHGGGLMVGAASTYDGLALAAHENVVVVTIQYRLGIWGFFSTGDEHSRGNWGHLDQVAALRWVQDNIASFGGNPGSVTIFGESAGGESVSVLVLSPLAKNLFHRAISESGVALTSVLVKKGDVKPLAEQIAITAGCKTTTSAVMVHCLRQKTEEELLETTLKMKFLSLDLQGDPRESQPLLGTVIDGMLLLKTPEELQAERNFHTVPYMVGINKQEFGWLIPMQLMSYPLSEGQLDQKTAMSLLWKSYPLVCIAKELIPEATEKYLGGTDDTVKKKDLFLDLIADVMFGVPSVIVARNHRDAGAPTYMYEFQYRPSFSSDMKPKTVIGDHGDELFSVFGAPFLKEGASEEEIRLSKMVMKFWANFARNGNPNGEGLPHWPEYNQKEGYLQIGANTQAAQKLKDKEVAFWTNLFAKKAVEKPPQTEHIEL
Take B1: in series [5], the Km turned out to be 6.04 µM and the Vmax is 0.0283 µmol/min/mg.
